Results: PubChem BioAssay (NCI)
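Cultured in 96-well plates, cells were exposed to test compound for 48 hours across five concentrations. At the GI50, growth is halved. At the TGI there is no net growth.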

Columns and labels:
Test in all cases: growth of human tumour cells (NCI), 48 h
HOP-92 NSCLC = system: HOP-92 NSCLC
HT29 colon = system: HT29 colon
IGROV1 ovarian = system: IGROV1 ovarian
K-562 leukemia = system: K-562 leukemia
SF-539 CNS = system: SF-539 CNS
SK-MEL-5 melanoma = system: SK-MEL-5 melanoma
T-47D breast = system: T-47D breast
SNB-75 CNS = system: SNB-75 CNS

SMILES	GI50 (HOP-92 NSCLC)	TGI (HOP-92 NSCLC)	GI50 (HT29 colon)	TGI (HT29 colon)	GI50 (IGROV1 ovarian)	TGI (IGROV1 ovarian)	GI50 (K-562 leukemia)	TGI (K-562 leukemia)	GI50 (SF-539 CNS)	TGI (SF-539 CNS)	GI50 (SK-MEL-5 melanoma)	TGI (SK-MEL-5 melanoma)	GI50 (T-47D breast)	TGI (T-47D breast)	GI50 (SNB-75 CNS)	TGI (SNB-75 CNS)
COc1cc(-c2nn(C)nc2-c2cc3ccccc3s2)cc(OC)c1OC	0.0806 µM	78.7 µM	0.0558 µM	0.393 µM	0.707 µM	> 100 µM	0.0428 µM	> 100 µM	0.149 µM	0.903 µM	0.225 µM	> 100 µM	> 100 µM	> 100 µM		
O=C(/C=C\c1cccc([N+](=O)[O-])c1)c1ccccc1	2.04 µM	5.12 µM	2.77 µM	> 100 µM	2.62 µM	> 28.6 µM	2.21 µM	> 100 µM	3.4 µM	9.81 µM	6.97 µM	20.2 µM	2.33 µM	6.1 µM	9.82 µM	30.5 µM
N#CC(NC12CC3CC(CC(C3)C1)C2)c1ccccc1 (centres undefined)		> 100 µM		> 100 µM		> 100 µM		> 100 µM		> 100 µM		> 100 µM		> 100 µM		> 100 µM
COC(=O)C1=C(C(=O)Nc2cccnc2)C2OC1(C(Cc1ccccc1)Oc1ccccc1)C1OC21 (centres undefined)	1.46 µM	3 µM	2.73 µM	6.97 µM	9.17 µM	25.8 µM	2.03 µM	6.68 µM	7.04 µM	19.8 µM	15.6 µM	31.3 µM	2.02 µM	4.86 µM	8.28 µM	21.1 µM
Cc1ccccc1NC(=O)N/C(N)=N/c1nc2ccccc2s1		> 100 µM	0.039 µM	> 100 µM	0.0796 µM	> 100 µM	0.0327 µM	> 100 µM	0.041 µM	0.725 µM	0.065 µM	2.07 µM			< 0.0165 µM	0.446 µM
CCc1ccc(/C(C#N)=C/C=C/c2ccccc2)cc1	2.28 µM	78.8 µM	1.38 µM	9.41 µM	7.55 µM	> 100 µM	0.882 µM	> 100 µM	1.52 µM	4.69 µM	1.09 µM	26.2 µM	2.4 µM	> 100 µM		
NCC(=O)Nc1ccc(-n2nc(C(F)(F)F)cc2-c2ccc3c(ccc4ccccc43)c2)cc1	1.27 µM	2.65 µM	0.937 µM	2.27 µM			0.472 µM	3.38 µM	1.06 µM	2.41 µM	1.25 µM	2.56 µM	1.62 µM	3 µM	1.26 µM	2.79 µM
COC(=O)C1=C2C3=C(C(=O)c4ccccc4C3=O)N(Cc3ccccc3)C2(OC(C)=O)C=CC1=O (centres undefined)	0.85 µM	19.7 µM	37 µM	> 100 µM	16.5 µM	> 100 µM	4.69 µM	> 100 µM	5.9 µM	23.1 µM	10.2 µM	24.9 µM	66.4 µM	> 100 µM	40.3 µM	> 100 µM
C[CH2][Sn]1([CH2]C)[O]C2C(O)OC(CO)C(O)C2[O]1 (centres undefined)	20 µM	47 µM	65 µM	> 100 µM	38.7 µM	> 100 µM	16.7 µM	41.4 µM	17.3 µM	32.5 µM	34.1 µM	> 100 µM	14.6 µM	32.3 µM	> 100 µM	> 100 µM
COc1ccc(Nc2nc(NCc3ccccc3)c3ccccc3n2)cc1	2.59 µM	12.6 µM	3.48 µM	11.1 µM	7.12 µM	25.7 µM	2.01 µM	5.71 µM	9.52 µM	23.9 µM	1.68 µM	3.14 µM	1.74 µM	3.4 µM	7.98 µM	22.4 µM
CCOC(=O)CC(=O)N(c1ccc(OC)cc1)C(C(=O)OC)c1ccccc1 (centres undefined)				> 100 µM		> 100 µM		> 100 µM		> 100 µM		> 100 µM		> 100 µM		> 100 µM
N#Cc1cc(-c2ccccc2)[nH]c1-c1nccc2ccccc12			30.5 µM	> 100 µM	23.3 µM	> 100 µM	6.04 µM	> 100 µM	32.7 µM	> 100 µM	3.58 µM	15.2 µM	3.06 µM	45.2 µM	13.7 µM	> 100 µM
Nc1ccn(C2OC(CO[P+](=O)OC3C(CO[P+](=O)OC4C(CO[P+](=O)OC5C(CO[P+](=O)OC6C(CO[P+](=O)OC7C(CO[P+](=O)OC8C(CO[P+](=O)OC9C(CO[P+](=O)OC%10C(CO[P+](=O)OC%11C(CO)OC(n%12ccc(N)nc%12=O)C%11(F)F)OC(n%11ccc(N)nc%11=O)C%10(F)F)OC(n%10ccc(N)nc%10=O)C9(F)F)OC(n9ccc(N)nc9=O)C8(F)F)OC(n8ccc(N)nc8=O)C7(F)F)OC(n7ccc(N)nc7=O)C6(F)F)OC(n6ccc(N)nc6=O)C5(F)F)OC(n5ccc(N)nc5=O)C4(F)F)OC(n4ccc(N)nc4=O)C3(F)F)C(O)C2(F)F)c(=O)n1 (centres undefined)			1.32 µM	> 100 µM	> 100 µM	> 100 µM	2.71 µM	> 100 µM				> 100 µM		> 100 µM		
O=C1OCC2=C1C(c1ccccc1)c1cc3c(cc1N2CCO)CCC3 (centres undefined)			0.0878 µM		0.0799 µM	0.774 µM	0.0908 µM	> 25 µM	0.0732 µM	0.966 µM	0.0762 µM	5.41 µM	0.0922 µM	> 25 µM	0.0786 µM	> 25 µM
COC(=O)C1C2CC3C(OC(=O)C31)C2I (centres undefined)		> 100 µM		> 100 µM		> 100 µM		> 100 µM		> 100 µM		> 100 µM				> 100 µM
NC(=O)c1ncn(C2OC(CO)C(O)C2O)n1 (centres undefined)	> 100 µM	> 100 µM	14.2 µM	> 100 µM	> 100 µM	> 100 µM	51.9 µM	> 100 µM			> 100 µM	> 100 µM	49.2 µM	> 100 µM		
O=C(/C=C/c1ccccc1O)c1ccccc1	8.77 µM	23 µM	3.55 µM	15.4 µM	1.56 µM	4.12 µM	2.51 µM	14.1 µM	15.4 µM	34.1 µM	11.5 µM	23.9 µM	14.7 µM	64.5 µM		
O=[n+]1cnn([O-])c2ccccc21				40.4 µM		28.5 µM		> 100 µM		55.7 µM				29.7 µM		> 100 µM
